Reference: ChEMBL document CHEMBL1139857, “Target-based approach to inhibitors of histone arginine methyltransferases” (J Med Chem, 2007)
The source made the active and inactive calls. The calls are words filed in the database; no cut-off is given here.

Assays:
[1] = biological target: RmtA (Emericella nidulans) (UniProt Q5VLE3); assay: Inhibition of Aspergillus nidulans RmtA at 10 uM by TRF assay
[2] = biological target: RmtA (Emericella nidulans) (UniProt Q5VLE3); assay: Inhibition of Aspergillus nidulans RmtA at 2 uM by TRF assay
RmtA = RmtA (Emericella nidulans, UniProt Q5VLE3); assay: Inhibition of Aspergillus nidulans RmtA by TRF assay
RmtA, sequence (Q5VLE3 whole entry): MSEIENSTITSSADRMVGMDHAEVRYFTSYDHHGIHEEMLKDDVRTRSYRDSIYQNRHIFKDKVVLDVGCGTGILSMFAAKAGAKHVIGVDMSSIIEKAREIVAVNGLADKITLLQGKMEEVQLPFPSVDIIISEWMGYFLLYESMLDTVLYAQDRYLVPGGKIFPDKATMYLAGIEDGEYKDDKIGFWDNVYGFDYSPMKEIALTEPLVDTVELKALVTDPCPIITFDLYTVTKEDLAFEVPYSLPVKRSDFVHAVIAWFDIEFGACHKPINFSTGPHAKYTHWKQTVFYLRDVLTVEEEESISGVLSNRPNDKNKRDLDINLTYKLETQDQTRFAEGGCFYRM

[3] = biological target: T1, Estrogen receptor (Homo sapiens) (UniProt P03372); assay: Inhibition of estradiol-mediated ERalpha activation in MCF-7-2a cells at 150 uM; format: cell-based; parameters: scale not given: the % may be the effect or the level left
T1 sequence (whole entry): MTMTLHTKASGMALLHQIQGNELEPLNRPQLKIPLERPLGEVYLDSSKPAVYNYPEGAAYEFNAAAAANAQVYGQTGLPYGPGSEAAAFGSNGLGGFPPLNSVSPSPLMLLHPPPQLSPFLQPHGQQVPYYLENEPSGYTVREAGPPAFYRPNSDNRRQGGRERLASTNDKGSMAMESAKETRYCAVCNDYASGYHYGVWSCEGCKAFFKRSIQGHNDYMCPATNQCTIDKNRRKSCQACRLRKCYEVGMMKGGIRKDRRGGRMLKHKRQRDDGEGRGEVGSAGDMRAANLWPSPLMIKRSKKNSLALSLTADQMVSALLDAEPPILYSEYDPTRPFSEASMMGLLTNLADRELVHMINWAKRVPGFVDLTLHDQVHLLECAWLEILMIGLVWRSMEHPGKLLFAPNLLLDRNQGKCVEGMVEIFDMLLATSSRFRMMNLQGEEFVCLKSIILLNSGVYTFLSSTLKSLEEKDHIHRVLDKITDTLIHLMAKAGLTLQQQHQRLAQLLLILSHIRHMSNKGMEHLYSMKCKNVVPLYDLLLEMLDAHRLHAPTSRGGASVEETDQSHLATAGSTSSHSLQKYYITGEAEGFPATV

[4] = biological target: T1, Estrogen receptor (Homo sapiens); assay: Inhibition of ERalpha activation in MCF-7-2a cells by reporter gene assay; format: cell-based
[5] = biological target: T2, Androgen receptor (Homo sapiens) (UniProt P10275); assay: Inhibition of androgen receptor activation in MCF-7-2a cells by reporter gene assay; format: cell-based
T2 sequence (whole entry): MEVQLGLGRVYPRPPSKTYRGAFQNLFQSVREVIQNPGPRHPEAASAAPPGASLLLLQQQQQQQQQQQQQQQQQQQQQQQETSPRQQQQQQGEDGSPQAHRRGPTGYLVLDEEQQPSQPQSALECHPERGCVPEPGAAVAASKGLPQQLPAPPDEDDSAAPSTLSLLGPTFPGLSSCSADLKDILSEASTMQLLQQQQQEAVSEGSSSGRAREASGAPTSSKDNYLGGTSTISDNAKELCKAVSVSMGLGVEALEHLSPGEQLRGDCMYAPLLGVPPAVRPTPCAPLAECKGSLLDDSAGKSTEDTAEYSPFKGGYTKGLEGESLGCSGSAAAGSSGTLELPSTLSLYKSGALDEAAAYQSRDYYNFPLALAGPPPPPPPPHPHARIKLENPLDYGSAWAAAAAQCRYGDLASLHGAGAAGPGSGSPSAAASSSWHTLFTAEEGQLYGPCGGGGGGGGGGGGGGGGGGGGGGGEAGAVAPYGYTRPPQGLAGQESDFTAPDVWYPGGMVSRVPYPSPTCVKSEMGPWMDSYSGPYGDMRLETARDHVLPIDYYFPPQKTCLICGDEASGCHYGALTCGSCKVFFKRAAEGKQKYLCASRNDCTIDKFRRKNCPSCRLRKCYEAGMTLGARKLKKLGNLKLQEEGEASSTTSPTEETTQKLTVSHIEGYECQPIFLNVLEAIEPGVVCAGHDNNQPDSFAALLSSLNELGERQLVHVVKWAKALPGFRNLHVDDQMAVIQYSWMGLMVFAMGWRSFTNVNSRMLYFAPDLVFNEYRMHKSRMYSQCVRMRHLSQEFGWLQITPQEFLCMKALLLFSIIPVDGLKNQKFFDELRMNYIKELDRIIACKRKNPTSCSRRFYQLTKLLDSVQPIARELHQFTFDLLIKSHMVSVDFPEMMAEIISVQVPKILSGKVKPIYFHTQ

RmtA (Emericella nidulans), sequence (Q5VLE3 as listed by the source): as the sequence (Q5VLE3 whole entry) above

Structure (SMILES)	inhibition [1] [%]	inhibition [2] [%]	IC50 (RmtA) [µM]	other results
Cc1ccc(CNc2ncnc3[nH]cnc23)cc1	77	26.1		
N=C(N)Nc1nc2cc([N+](=O)[O-])ccc2[nH]1	75.1	15.6		
CC(C)(CN)SCc1ccccc1	68.3			Activity [2]: inactive
Nc1ccc(S(=O)(=O)c2ccc(NCN3C(=O)NC(=O)C(=O)C3=O)cc2)cc1 [ALLANTODAPSONE]			8.3	
N=C(N)c1ccc(/C=C/c2ccc(C(=N)N)cc2)cc1 [STILBAMIDINE]			29.9	Activity [3]: 75%
c1nc(NCCCc2c[nH]cn2)c2nc[nH]c2n1	64.7	34.9		
N=C(N)SCc1cc(Cl)cc(Cl)c1O	83.9	18.3		
O=C(Nc1ccc2c(O)cc(S(=O)(=O)O)cc2c1)Nc1ccc2c(O)cc(S(=O)(=O)O)cc2c1			33.8	Activity [3]: Active; Activity [4]: Active; Activity [5]: Active
